Assay results published in US20240336568A1, “SELECTIVE PHD1 INHIBITOR COMPOUNDS, COMPOSITIONS, AND METHODS OF USE” (Akebia Therapeutics, Inc., priority 2021, published 2024).

test system: full-length human prolyl-4-hydroxylase domain (PHD) enzymes, PHD1 and PHD2; test: TR-FRET assay, selectivity of compounds for PHD1 over PHD2 (ratio of Kis calculated from IC50s); type: biochemical; conditions: ratio of Kis (PHD2 Ki/PHD1 Ki), Kis calculated from TR-FRET IC50s by Cheng Prussoff equation; 1 uM 2-OG
From the text: Time-resolved fluorescence resonance energy transfer (TR-FRET) assay was utilized to determine the enzymatic half maximal inhibitory concentration (IC50) value of PHD inhibitors against the full-length human prolyl-4-hydroxylase domain (PHD) enzymes, PHD1 and PHD2. The TR-FRET assay was developed based on the specific binding of hydroxylated HIF-la peptide with the complex formed by VHL, EloB and EloC (VBC), to generate a fluorescent signal. Terbium (Tb)-Donor (monoclonal antibody anti-6His-Tb-cryptate Gold) and D2-acceptor (streptavidin [SA]-D2) of TR-FRET are linked to the VBC complex and to HIF-1α peptide, respectively. The VBC complex binds specifically to the HIF-1α peptide when it is hydroxylated, allowing energy transfer from TR-FRET donor to acceptor (FIG. 1).
TR-FRET Reagents. Monoclonal antibody anti-6His-Tb-cryptate Gold (catalog #61HI2TLA) and streptavidin (SA)-D2 (catalog #610SADLA) were purchased from CisBio International (Bedford, MA, USA).
N-terminus biotinylated HIF-1α C35 synthetic peptide representing amino acids 547 to 581 and including the proline 564 PHD2 hydroxylation site was purchased from California Peptide Research (Salt Lake City, UT, USA).
VBC Complex. His-tagged recombinant VHL protein, EloB, EloC complex (His-VBC) was supplied by Axxam (Milan, Italy). Recombinant human VHL (National Center for Biotechnology Information [NCBI] accession number NP_00542.1) contained a His tag at the C-terminus of amino acids 55 to 213 and is referred to as VHL-His. VHL-His was co-expressed in E. coli with full-length human EloB (NCBI accession number Q15370.1) and full-length human EloC (NCBI accession number Q15369.1) and purified by affinity chromatography on a nickel-nitrilotriacetic acid (Ni-NTA) column as the His-VBC complex. Purity (˜80%) was assessed by sodium dodecyl sulfate polyacrylamide gel electrophoresis (SDS-PAGE).
PHD1. Recombinant human PHD1 protein (catalog #81064, Lot #24717001) was purchased from Active Motif (Carlsbad, CA, USA). PHD1 was expressed in a baculovirus expression system as the full-length protein (NCBI accession number NP_542770.2) with an N-terminal FLAG tag (molecular weight 44.9 kDa). Purity (>90%) was assessed by SDS-PAGE.
PHD2. The full-length human PHD2 enzyme was produced with a baculovirus infected insect cell (BIIC) expression system by Beryllium (Bedford, MA, USA). The PHD2 construct contained amino acids 1 to 426 of PHD2 (UniProt Knowledgebase[UniProtKB]/Swiss-Prot accession number Q9GZT9.1), and a His tag and a Tobacco Etch Virus (TEV) protease cleavage site at the N-terminus. The construct was expressed in Sf9 insect cells, purified by Ni-NTA column and digested with TEV protease to remove the His tag.
Compounds were preincubated with PHD enzyme in a 10 μL reaction volume in white 384-well Optiplate microplates (catalog #6007290, Perkin Elmer, Waltham, MA, USA). For this, 5 μL compound was serially diluted with dilution buffer (50 mM HEPES [4-(2-hydroxyethyl)-1-piperazineethanesulfonic acid] pH 7.5, 50 mM sodium chloride [NaCl], 0.01% Tween-20, 0.01% purified bovine serum albumin [BSA]) and mixed with 5 μL PHD enzyme mix prepared as a 4× concentrate in the dilution buffer containing PHD enzyme (60 nM PHD1, 20 nM PHD2, 140 nM PHD3), 40 μM ferrous ammonium sulfate (FAS), 4 mM sodium (Na) ascorbate. The plates were incubated for 30 minutes at room temperature without rotation.
Five microliters of the VBC/anti-6His-Tb-cryptate Gold mix prepared as a 4× concentrate in dilution buffer containing 20 nM His-VBC, 1.32 nM monoclonal antibody anti-6His-Tb-cryptate Gold was then added. This step was followed immediately by the addition of 5 μL of the HIF-1α C35 substrate mix prepared as a 4× concentrate in the dilution buffer containing 120 nM biotin-labeled HIF-1α C35, 132 nM SA-D2, 4 μM 2-oxoglutarate (2-OG) to reach a final reaction volume of 20 μL. […]

| SMILES | Selectivity of PHD1 over PHD2 |
| --- | --- |
| CC(C)(CC(=O)O)NC(=O)c1ncc(-c2cccc(Cl)c2)cc1O [compound 1, 3-(5-(3-chlorophenyl)-3-hydroxypicolinamido)-3-methylbutanoic acid] | ~14 fold |
| C[C@@H](CC(=O)O)NC(=O)c1ncc(-c2cccc(Cl)c2)cc1O [compound 2, (S)-3-(5-(3-chlorophenyl)-3-hydroxypicolinamido)butanoic acid] | ~16 fold |
| C[C@H](CC(=O)O)NC(=O)c1ncc(-c2cccc(Cl)c2)cc1O [compound 3, (R)-3-(5-(3-chlorophenyl)-3-hydroxypicolinamido)butanoic acid] | ~17 fold |
| CC(C)(CNC(=O)c1ncc(-c2cccc(Cl)c2)cc1O)C(=O)O [compound 4, 3-(5-(3-chlorophenyl)-3-hydroxypicolinamido)-2,2-dimethylpropanoic acid] | ~1187 fold |
| O=C(O)CCNC(=O)c1ncc(-c2cccc(Cl)c2)cc1O [compound 5, 3-(5-(3-chlorophenyl)-3-hydroxypicolinamido)propanoic acid] | ~12 fold |
| CC(C)(CNC(=O)c1ncc(-c2cnn(-c3ccccc3)c2)cc1O)C(=O)O [compound 6, 3-(3-Hydroxy-5-(1-phenyl-1H-pyrazol-4-yl)picolinamido)-2,2-dimethylpropanoic acid] | ~249 fold |
| CCCn1cc(-c2cnc(C(=O)NCC(C)(C)C(=O)O)c(O)c2)cn1 [compound 7, 3-(3-hydroxy-5-(1-propyl-1H-pyrazol-4-yl)picolinamido)-2,2-dimethylpropanoic acid] | ~503 fold |
| CC(C)(CNC(=O)c1ncc(-c2cccc(Oc3ccccc3)c2)cc1O)C(=O)O [compound 8, 3-(3-hydroxy-5-(3-phenoxyphenyl)picolinamido)-2,2-dimethylpropanoic acid] | ~219 fold |
| CC(C)(CNC(=O)c1ncc(-c2cccc(-c3ccccc3)c2)cc1O)C(=O)O [compound 9, 3-(5-([1,1′-biphenyl]-3-yl)-3-hydroxypicolinamido)-2,2-dimethylpropanoic acid] | ~189 fold |
| CC(C)(CNC(=O)c1ncc(-c2cccc(CN3CCCC3)c2)cc1O)C(=O)O [compound 10, 3-(3-hydroxy-5-(3-(pyrrolidin-1-ylmethyl)phenyl)picolinamido)-2,2-dimethylpropanoic acid] | ~95 fold |
| CC(C)(CNC(=O)c1ncc(-c2cccc(COc3cccc(Cl)c3)c2)cc1O)C(=O)O [compound 11, 3-(5-(3-((3-chlorophenoxy)methyl)phenyl)-3-hydroxypicolinamido)-2,2-dimethylpropanoic acid] | ~50 fold |
| CC(C)(CNC(=O)c1ncc(-c2cccc(OCC3CC3)c2)cc1O)C(=O)O [compound 12, 3-(5-(3-(cyclopropylmethoxy)phenyl)-3-hydroxypicolinamido)-2,2-dimethylpropanoic acid] | ~1984 fold |
| COCCc1ccc(OCc2cccc(-c3cnc(C(=O)NCC(C)(C)C(=O)O)c(O)c3)c2)cc1 [compound 13, 3-(3-hydroxy-5-(3-((4-(2-methoxyethyl)phenoxy)methyl)phenyl)picolinamido)-2,2-dimethylpropanoic acid] | ~6 fold |
| Cc1ncc(-c2cnc(C(=O)NCC(C)(C)C(=O)O)c(O)c2)s1 [compound 14, 3-(3-hydroxy-5-(2-methylthiazol-5-yl)picolinamido)-2,2-dimethylpropanoic acid] | ~15 fold |
| CC(C)(CNC(=O)c1ncc(-c2cccc(-c3cccnc3)c2)cc1O)C(=O)O [compound 15, 3-(3-hydroxy-5-(3-(pyridin-3-yl)phenyl)picolinamido)-2,2-dimethylpropanoic acid] | ~125 fold |
| CC(C)(CNC(=O)c1ncc(-c2cccc(COc3ccc(OC(F)(F)F)cc3)c2)cc1O)C(=O)O [compound 16, 3-(3-hydroxy-5-(3-((4-(trifluoromethoxy)phenoxy)methyl)phenyl)picolinamido)-2,2-dimethylpropanoic acid] | ~53 fold |
| CC(C)(CNC(=O)c1ncc(-c2ccc3ccccc3c2)cc1O)C(=O)O [compound 17, 3-(3-hydroxy-5-(naphthalen-2-yl)picolinamido)-2,2-dimethylpropanoic acid] | ~1031 fold |
| CC(C)(CNC(=O)c1ncc(-c2cccc(COc3cccc4ccccc34)c2)cc1O)C(=O)O [compound 18, 3-(3-hydroxy-5-(3-((naphthalen-1-yloxy)methyl)phenyl)picolinamido)-2,2-dimethylpropanoic acid] | ~885 fold |
| CC(C)(CNC(=O)c1ncc(-c2cnn(CCN3CCOCC3)c2)cc1O)C(=O)O [compound 19, 3-(3-hydroxy-5-(1-(2-morpholinoethyl)-1H-pyrazol-4-yl)picolinamido)-2,2-dimethylpropanoic acid] | ~495 fold |
| CC(C)(CNC(=O)c1ncc(-c2cccc3ccccc23)cc1O)C(=O)O [compound 20, 3-(3-hydroxy-5-(naphthalen-1-yl)picolinamido)-2,2-dimethylpropanoic acid] | ~159 fold |
| CC(C)(CNC(=O)c1ncc(-c2cccc(O)c2)cc1O)C(=O)O [compound 21, 3-(3-hydroxy-5-(3-hydroxyphenyl)picolinamido)-2,2-dimethylpropanoic acid] | ~1494 fold |
| CC(C)(CNC(=O)c1ncc(-c2cccc(OCc3ccc(Cl)cc3)c2)cc1O)C(=O)O [compound 22, 3-(5-(3-((4-chlorobenzyl)oxy)phenyl)-3-hydroxypicolinamido)-2,2-dimethylpropanoic acid] | ~261 fold |
| CC(C)(CNC(=O)c1ncc(-c2ccc3cc(O)ccc3c2)cc1O)C(=O)O [compound 23, 3-(3-hydroxy-5-(6-hydroxynaphthalen-2-yl)picolinamido)-2,2-dimethylpropanoic acid] | ~113 fold |
| CC(C)(CNC(=O)c1ncc(-c2cccc(Oc3ccc(Cl)cc3)c2)cc1O)C(=O)O [compound 24, 3-(5-(3-(4-chlorophenoxy)phenyl)-3-hydroxypicolinamido)-2,2-dimethylpropanoic acid] | ~181 fold |
| CC(C)(CNC(=O)c1ncc(-c2cccc(Nc3ccc(Cl)cc3)c2)cc1O)C(=O)O [compound 25, 3-(5-(3-((4-chlorophenyl)amino)phenyl)-3-hydroxypicolinamido)-2,2-dimethylpropanoic acid] | ~213 fold |
| CC(C)(CNC(=O)c1ncc(-c2ccc3cc(Oc4ccc(Cl)cc4)ccc3c2)cc1O)C(=O)O [compound 26, 3-(5-(6-(4-chlorophenoxy)naphthalen-2-yl)-3-hydroxypicolinamido)-2,2-dimethylpropanoic acid] | ~31 fold |
| CC(C)(CNC(=O)c1ncc(-c2ccc3cc(OCc4ccc(Cl)cc4)ccc3c2)cc1O)C(=O)O [compound 27, 3-(5-(6-((4-chlorobenzyl)oxy)naphthalen-2-yl)-3-hydroxypicolinamido)-2,2-dimethylpropanoic acid] | ~24 fold |
